Patent US20210347794A1, “Phosphate Derivatives of Indole Compounds and Their Use” (ARIAGEN, INC., priority 2018, published 2021)

Assays:
EMT-6 cancer cells = test: Anti-tumor activity in EMT-6 syngeneic mouse tumor model; format: in vivo; details: 80 mpk
Method: This example describes in vivo studies that evaluated the anti-cancer efficacy of ARI-158 and ARI-160 in syngeneic mouse tumor models. Mice implanted subcutaneously with EMT-6 cancer cells were treated with ARI-158 and ARI-160, or vehicle controls, as described below.
A monolayer culture of tumor cells was maintained in vitro in DMEM or RPMI1640 medium supplemented with 10% fetal bovine serum at 37° C. in an atmosphere of 5% CO2. Cells in exponential growth phase were harvested and quantitated by cell counter before tumor inoculation.
EMT-6 syngeneic mouse tumor models were generated by inoculating female BALB/C 6 mice with EMT-6 cancer cells at their right lower flank.
Each mouse was inoculated subcutaneously with tumor cells in 0.1 mL of PBS. Treatments were started when the mean tumor size reached approximately 80-120 mm^3 (around 100 mm^3). The administration of the test compounds and the animal number in each study group are shown in the study design. The date of tumor cell inoculation was denoted as day 0.
ARI-158 and ARI-160 were dissolved in DMSO at the final concentration of 26.7 mg/ml and stored at room temperature.
Randomization of animals was started when the mean tumor size reached approximately 90 mm^3 to form the mouse study groups. The randomization was performed based on “Matched distribution” method using the multi-task method (StudyDirector™ software, version 3.1.399.19)/randomized block design. […]
Tumor volumes were measured twice per week in two dimensions using a caliper, and the volume was expressed in mm^3 using the formula: […]
where V is tumor volume, L is tumor length (the longest tumor dimension) and W is tumor width (the longest tumor dimension perpendicular to L). Dosing as well as tumor and body weight measurements was conducted in a Laminar Flow Cabinet. The body weights and tumor volumes were measured by using StudyDirector™ software (version 3.1.399.19).
Tumor growth inhibition percentage (TGI %) is an indicator for antitumor activity of a drug compound, and expressed as: […]
where T and C are the mean tumor volume (or weight) of the treated and control groups, respectively, on a given day. Statistical analysis of the difference in mean tumor volume (MTV) among the groups was conducted using the data collected on the day when the MTV of the vehicle group reached the humane endpoints, so that TGI could be derived for all or most mice enrolled in the study.

[1] = In vivo pharmacokinetic study in rats, IV or oral dose of ARI-160
Method: This example describes pharmacokinetic (PK) studies of ARI-158 and ARI-160 in dogs and rats, respectively. In the present studies, the test compounds were given to groups of male beagle dogs and rats (N=3 in each group) intravenously (IV) at 2 mg/kg or orally (PO) at 10 mg/kg. IV doses were formulated in DMSO, while PO doses were formulated in a 50/50 mixture of PEG400 and Tween 80. Blood samples were collected at pre-dose and over a period of 24 hours post-dose. Plasma concentrations of the indolo-phosphoramidate compounds were determined by HPLC.

[2] = IV 2 mg/kg ARI-160, Animal_ID 1
[3] = IV 2 mg/kg ARI-160, Animal_ID 2
[4] = IV 2 mg/kg ARI-160, Animal_ID 3
[5] = PO 10 mg/kg ARI-160, Animal_ID 4
[6] = PO 10 mg/kg ARI-160, Animal_ID 5
[7] = PO 10 mg/kg ARI-160, Animal_ID 6

**Q.** With `CCC(=O)c1csc(C(=O)c2cn(COP(=O)([O-])[O-])c3cc(F)ccc23)n1.[Na+].[Na+]` [ARI-160] as the compound, how does the TGI (EMT-6 cancer cells; study day 6) read?
**A.** 0.01%

**Q.** And the TGI (EMT-6 cancer cells; study day 10)?
**A.** 30.95%

**Q.** What about the TGI (EMT-6 cancer cells; study day 13) of the same compound?
**A.** 30.58%

**Q.** And the TGI (EMT-6 cancer cells; study day 17)?
**A.** 20.47%

**Q.** What about the TGI (EMT-6 cancer cells; study day 20) of the same compound?
**A.** 32.25%

**Q.** What about the TGI (EMT-6 cancer cells; study day 24) of the same compound?
**A.** 33.19%

**Q.** And the TGI (EMT-6 cancer cells; study day 27)?
**A.** 22.24%

**Q.** What about the TGI (EMT-6 cancer cells; study day 31) of the same compound?
**A.** 12.40%

**Q.** What about the AUCinf [1, 2] of the same compound?
**A.** 5140 ng·h/mL

**Q.** What about the AUClast [1, 2] of the same compound?
**A.** 5120 ng·h/mL

**Q.** And the Cl [1, 2]?
**A.** 6.48 mL/min/kg

**Q.** What about the Cmax [1, 2] of the same compound?
**A.** 16100 ng/mL

**Q.** What about the MRTinf [1, 2] of the same compound?
**A.** 13.8 min

**Q.** And the MRTlast [1, 2]?
**A.** 12.6 min

**Q.** What about the Tmax [1, 2] of the same compound?
**A.** 4.98 min

**Q.** What about the T½ [1, 2] of the same compound?
**A.** 37.2 min

**Q.** What about the Vss [1, 2] of the same compound?
**A.** 0.0898 L/kg

**Q.** What about the AUCinf [1, 3] of the same compound?
**A.** 3950 ng·h/mL

**Q.** And the AUClast [1, 3]?
**A.** 3930 ng·h/mL

**Q.** And the Cl [1, 3]?
**A.** 8.43 mL/min/kg

**Q.** And the Cmax [1, 3]?
**A.** 12100 ng/mL

**Q.** What about the MRTinf [1, 3] of the same compound?
**A.** 15.6 min

**Q.** And the MRTlast [1, 3]?
**A.** 13.8 min

**Q.** And the Tmax [1, 3]?
**A.** 4.98 min

**Q.** What about the T½ [1, 3] of the same compound?
**A.** 51.6 min

**Q.** What about the Vss [1, 3] of the same compound?
**A.** 0.132 L/kg

**Q.** What about the AUCinf [1, 4] of the same compound?
**A.** 8590 ng·h/mL

**Q.** And the AUClast [1, 4]?
**A.** 8590 ng·h/mL

**Q.** And the Cl [1, 4]?
**A.** 3.88 mL/min/kg

**Q.** And the Cmax [1, 4]?
**A.** 24600 ng/mL

**Q.** And the MRTinf [1, 4]?
**A.** 10.8 min

**Q.** And the MRTlast [1, 4]?
**A.** 10.8 min

**Q.** What about the Tmax [1, 4] of the same compound?
**A.** 4.98 min

**Q.** What about the T½ [1, 4] of the same compound?
**A.** 54 min

**Q.** What about the Vss [1, 4] of the same compound?
**A.** 0.042 L/kg

**Q.** What about the AUCinf ([1]; IV 2 mg/kg ARI-160, Mean) of the same compound?
**A.** 5890 ng·h/mL

**Q.** What about the AUClast ([1]; IV 2 mg/kg ARI-160, Mean) of the same compound?
**A.** 5880 ng·h/mL

**Q.** What about the Cl ([1]; IV 2 mg/kg ARI-160, Mean) of the same compound?
**A.** 6.27 mL/min/kg

**Q.** And the Cmax ([1]; IV 2 mg/kg ARI-160, Mean)?
**A.** 17600 ng/mL

**Q.** And the MRTinf ([1]; IV 2 mg/kg ARI-160, Mean)?
**A.** 13.2 min

**Q.** And the MRTlast ([1]; IV 2 mg/kg ARI-160, Mean)?
**A.** 12.6 min

**Q.** What about the Tmax ([1]; IV 2 mg/kg ARI-160, Mean) of the same compound?
**A.** 4.98 min

**Q.** And the T½ ([1]; IV 2 mg/kg ARI-160, Mean)?
**A.** 47.4 min

**Q.** And the Vss ([1]; IV 2 mg/kg ARI-160, Mean)?
**A.** 0.0878 L/kg

**Q.** What about the bioavailability ([1]; IV versus oral dosing) of the same compound?
**A.** better bioavailability with an IV dosing

**Q.** What about the AUCinf [1, 5] of the same compound?
**A.** 23.3 ng·h/mL

**Q.** What about the AUClast [1, 5] of the same compound?
**A.** 13.3 ng·h/mL

**Q.** What about the Cmax [1, 5] of the same compound?
**A.** 12.7 ng/mL

**Q.** What about the MRTinf [1, 5] of the same compound?
**A.** 139 min

**Q.** And the MRTlast [1, 5]?
**A.** 51.8 min

**Q.** And the Tmax [1, 5]?
**A.** 15 min

**Q.** And the T½ [1, 5]?
**A.** 94.8 min

**Q.** What about the AUCinf [1, 6] of the same compound?
**A.** 51.8 ng·h/mL

**Q.** And the AUClast [1, 6]?
**A.** 32.1 ng·h/mL

**Q.** And the Cmax [1, 6]?
**A.** 10.1 ng/mL

**Q.** What about the MRTinf [1, 6] of the same compound?
**A.** 505 min

**Q.** And the MRTlast [1, 6]?
**A.** 195 min

**Q.** What about the Tmax [1, 6] of the same compound?
**A.** 15 min

**Q.** What about the T½ [1, 6] of the same compound?
**A.** 368 min

**Q.** What about the AUCinf [1, 7] of the same compound?
**A.** 22.5 ng·h/mL

**Q.** And the AUClast [1, 7]?
**A.** 11.0 ng·h/mL

**Q.** What about the Cmax [1, 7] of the same compound?
**A.** 6.75 ng/mL

**Q.** What about the MRTinf [1, 7] of the same compound?
**A.** 574 min

**Q.** And the MRTlast [1, 7]?
**A.** 121 min

**Q.** What about the Tmax [1, 7] of the same compound?
**A.** 15 min

**Q.** And the T½ [1, 7]?
**A.** 364 min

**Q.** What about the AUCinf ([1]; PO 10 mg/kg ARI-160, Mean) of the same compound?
**A.** 32.5 ng·h/mL

**Q.** And the AUClast ([1]; PO 10 mg/kg ARI-160, Mean)?
**A.** 18.8 ng·h/mL

**Q.** And the Cmax ([1]; PO 10 mg/kg ARI-160, Mean)?
**A.** 9.85 ng/mL

**Q.** And the F. ([1]; PO 10 mg/kg ARI-160, Mean)?
**A.** 0.110%

**Q.** And the MRTinf ([1]; PO 10 mg/kg ARI-160, Mean)?
**A.** 406 min

**Q.** What about the MRTlast ([1]; PO 10 mg/kg ARI-160, Mean) of the same compound?
**A.** 122 min

**Q.** What about the Tmax ([1]; PO 10 mg/kg ARI-160, Mean) of the same compound?
**A.** 15 min

**Q.** And the T½ ([1]; PO 10 mg/kg ARI-160, Mean)?
**A.** 275 min

**Q.** And the “provision of ARI-143” value ([1]; after administration of ARI-160)?
**A.** provided ARI-143 after oral as well as IV administration
